According to patent US10214546B2, “Btk inhibitors” (MERCK SHARP & DOHME CORP., priority 2014, dated 2019):
Where two headings read alike, the source gives them in different places.

Key:
[1] = test system: adenosine uptake into HeLa cells; assay: [3H]Adenosine uptake assay in HeLa cells; type: cell-based; settings: compound range 10 μM to 0.032 nM
Method in brief: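 IC50 came from a 4-parameter fit of counts per second over a ten-point, 1:3 titration (final 10 µM down to […]). Compound was applied 30 min at ambient temperature in HBSS/5% FBS before a 500 nM [3H]adenosine solution was added; uptake ran 60 min, read by Cytostar-T proximity scintillation.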

[2] = molecular target: BTK enzyme (recombinant full-length BTK, hBTK) (Homo sapiens (Human), UniProt Q06187); assay: BTK enzymatic activity LANCE TR-FRET assay; type: biochemical; settings: 50 pM hBTK, 25 μM ATP, 2 μM biotin-A5-peptide; compound range 1 μM to 0.017 nM; read-out: BTK binding IC50
[3] = Homo sapiens, HeLa, [3H]adenosine accumulation in HeLa cells, read-out: ADU inhibition IC50
[4] = [3H]adenosine accumulation in HeLa cells, read-out: ADU inhibition IC50

Chain of BTK enzyme (recombinant full-length BTK, hBTK) (Q06187 whole entry): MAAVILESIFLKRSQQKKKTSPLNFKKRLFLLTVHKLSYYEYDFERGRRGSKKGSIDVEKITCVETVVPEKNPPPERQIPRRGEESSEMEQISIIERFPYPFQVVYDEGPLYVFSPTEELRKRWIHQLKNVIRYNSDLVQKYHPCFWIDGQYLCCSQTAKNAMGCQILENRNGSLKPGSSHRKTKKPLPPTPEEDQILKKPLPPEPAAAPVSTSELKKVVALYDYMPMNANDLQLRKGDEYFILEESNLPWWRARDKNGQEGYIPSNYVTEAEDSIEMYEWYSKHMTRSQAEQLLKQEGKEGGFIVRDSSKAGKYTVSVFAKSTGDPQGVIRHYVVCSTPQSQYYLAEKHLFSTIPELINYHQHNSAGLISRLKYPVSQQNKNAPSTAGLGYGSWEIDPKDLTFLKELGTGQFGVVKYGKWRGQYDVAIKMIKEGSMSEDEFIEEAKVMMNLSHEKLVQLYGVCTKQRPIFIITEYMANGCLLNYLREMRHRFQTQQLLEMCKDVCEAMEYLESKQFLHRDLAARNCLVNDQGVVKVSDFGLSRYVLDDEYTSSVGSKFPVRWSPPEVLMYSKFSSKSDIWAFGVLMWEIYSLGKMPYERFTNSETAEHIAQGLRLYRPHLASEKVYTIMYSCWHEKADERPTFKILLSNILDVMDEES

| IC50 [1, 3] [nM] | IC50 [2] [nM] | IC50 [1, 4] [nM] | SMILES | IC50 ([1]; Homo sapiens, HeLa, read-out: ADU inhibition IC50 (nM), [3H]adenosine accumulation in HeLa cells) [nM] | IC50 ([1]; read-out: ADU inhibition IC50, [3H]adenosine accumulation in HeLa cells) [nM] |
| --- | --- | --- | --- | --- | --- |
| 10000 | 359 |  | CC(O)(c1ccc(-c2nc([C@@H]3CC[C@H]4CCC(=O)N4C3)n3ccnc(N)c23)cc1)c1cccnc1 (stereo partly drawn) [Example 18, (6R,8aS)-6-{8-amino-1-[4-(1-hydroxy-1-pyridin-3-ylethyl)phenyl]imidazo[1,5-a]pyrazin-3-yl}hexahydroindolizin-3(2H)-one] |  |  |
|  | 20.6 | 2410 | CCOc1cc(C(C)(O)c2cccc(C(F)(F)F)c2)ccc1-c1nc([C@@H]2CC[C@H]3CCC(=O)N3C2)n2ccnc(N)c12 (stereo partly drawn) [Example 167, (6R,8aS)-6-[8-amino-1-(2-ethoxy-4-{1-hydroxy-1-[3-(trifluoromethyl)phenyl]ethyl}phenyl)imidazo [1,5-a]pyrazin-3-yl]hexahydroindolizin-3(2H)-one] |  |  |
| 5110 | 22.2 |  | C[C@@](O)(c1ccc(-c2nc([C@@H]3CC[C@H]4CCC(=O)N4C3)n3c(C(F)(F)F)cnc(N)c23)cc1)c1cccc(C(F)(F)F)c1 [Example 173, (6R,8aS)-6-[8-amino-1-(4-{(1R)-1-hydroxy-1-[3-(trifluoromethyl)phenyl]ethyl}phenyl)-5-(trifluoromethyl)imidazo [1,5-a]pyrazin-3-yl]hexahydroindolizin-3(2H)-one] |  |  |
| 1490 | 83.2 |  | CN1CC[C@H]2CC[C@H](c3nc(-c4ccc([C@@](C)(O)c5cccc(C(F)(F)F)c5)cc4)c4c(N)nccn34)CN2C1=O [Example 118, (4aR,7S)-7-[8-amino-1-(4-{(1R)-1-hydroxy-1-[3-(trifluoromethyl)phenyl]ethyl}phenyl)imidazo [1,5-a]pyrazin-3-yl]-2-methyloctahydro-1H-pyridol[1,2-c]pyrimidin-1-one] |  |  |
| 3480 | 0.62 |  | C[C@](O)(c1ccc(-c2nc([C@@H]3CC[C@H]4CCC(=O)N4C3)n3ccnc(N)c23)cc1)c1cccc(C(F)(F)F)c1 [Example 4, (6R,8aS)-6-(8-amino-1-(4-((S)-1-hydroxy-1-(3-(trifluoromethyl)phenyl)ethyl)phenyl)imidazo[1,5-a]pyrazin-3-yl)hexahydroindolizin-3(2H)-one] |  |  |
| 1180 | 824 |  | Nc1nccn2c([C@@H]3CC[C@H]4CCC(=O)N4C3)nc(-c3ccc(C(O)c4cc(C(F)(F)F)ccc4F)cc3)c12 (stereo partly drawn) [Example 125, (6R,8aS)-6-(8-amino-1-(4-{[2-fluoro-5-(trifluoromethyl)phenyl] (hydroxy)methyl}phenyl)imidazo[1,5-a]pyrazin-3-yl]hexahydroindolizin-3(2H)-one] |  |  |
| 1220 | 243 |  | COc1ccccc1[C@](C)(O)c1ccc(-c2nc([C@@H]3CC[C@H]4CCC(=O)N4C3)n3ccnc(N)c23)cc1 [Example 50, (6R,8aS)-6-(8-amino-1-{4-[(1R)-1-hydroxy-1-(2-methoxyphenyl)ethyl]phenyl}imidazo[1,5-a]pyrazin-3-yl)hexahydroindolizin-3(2H)-one] |  |  |
|  | 1.4 | 2660 | C[C@@](O)(c1ccc(-c2nc([C@@H]3CC[C@H]4C(C(F)(F)F)CC(=O)N4C3)n3ccnc(N)c23)cc1)c1cccc(C(F)F)c1 (stereo partly drawn) [Example 184, (1R,6R,8aS)-6-[8-amino-1-(4-{(1R)-1-[3-(difluoromethyl)phenyl]-1-hydroxyethyl}phenyl)imidazo[1,5-a]pyrazin-3-yl]-1-(trifluoromethyl) hexahydroindolizin-3(2H)-one] |  |  |
| 4500 | 0.66 |  | C[C@@](O)(c1ccc(-c2nc([C@@H]3CC[C@H]4CCC(=O)N4C3)n3c(F)cnc(N)c23)cc1)c1cccc(C(F)F)c1 [Example 199, (6R,8aS)-6-(8-amino-1-(4-{(1R)-1-[3-(difluoromethyl)phenyl]-1-hydroxyethyl}phenyl)-5-fluoroimidazo[1,5-a]pyrazin-3-yl]hexahydroindolizin-3(2H)-one] |  |  |
| 2570 | 230 |  | C[C@](O)(c1cccc(C(F)(F)F)c1)c1ccc(-c2nc([C@@H]3CC[C@H]4CCC(=O)N4C3)n3ccnc(N)c23)c(CO)c1 [Example 20, (6R,8aS)-6-(8-amino-1-(4-((R)-1-hydroxy-1-(3-(trifluoromethyl)phenyl)ethyl)-2-(hydroxymethyl)phenyl)imidazo[1,5-a]pyrazin-3-yl)hexahydroindolizin-3(2H)-one] |  |  |
|  | 0.43 | 2260 | CC1(C)C[C@@H]2CC[C@@H](c3nc(-c4ccc(C(C)(O)c5cccc(C(F)F)c5)cc4F)c4c(N)nccn34)CN2C1=O (stereo partly drawn) [Example 203, (6R,8aS)-6-[8-amino-1-(4-{1-[3-(difluoromethyl)phenyl]-1-hydroxyethyl}-2-fluorophenyl)imidazo[1,5-a]pyrazin-3-yl]-2,2-dimethylhexahydroindolizin-3(2H)-one] |  |  |
|  | 1000 | 722 | C[C@](O)(c1ccc(-c2nc([C@@H]3CC[C@H]4CCC(=O)N4C3)n3ccnc(N)c23)cc1)c1ccc(C(F)(F)F)s1 [Example 111, (6R,8aS)-6-[8-amino-1-(4-{(1S)-1-hydroxy-1-[5-(trifluoromethyl)thiophen-2-yl]ethyl}phenyl)imidazo [1,5-a]pyrazin-3-yl]hexahydroindolizin-3(2H)-one] |  |  |
| 1840 | 0.07 |  | C[C@@](O)(c1ccc(-c2nc([C@@H]3CC[C@H]4CCC(=O)N4C3)n3ccnc(N)c23)cc1)c1cccc(C2CC2)c1 [Example 38, (6R,8aS)-6-(8-amino-1-{4-[(1R)-1-(3-cyclopropylphenyl)-1-hydroxyethyl]phenyl}imidazo[1,5-a]pyrazin-3-yl)hexahydroindolizin-3(2H)-one] |  |  |

| SMILES | IC50 [1, 3] [nM] | IC50 [2] [nM] | IC50 [1, 4] [nM] | IC50 ([1]; Homo sapiens, HeLa, read-out: ADU inhibition IC50 (nM), [3H]adenosine accumulation in HeLa cells) [nM] | IC50 ([1]; read-out: ADU inhibition IC50, [3H]adenosine accumulation in HeLa cells) [nM] |
| --- | --- | --- | --- | --- | --- |
| CC(F)(F)c1cccc([C@@](C)(O)c2ccc(-c3nc([C@@H]4CC[C@H]5CCC(=O)N5C4)n4c(Cl)cnc(N)c34)cc2)c1 [Example 139, (6R,8aS)-6-[8-amino-5-chloro-1-(4-{(1S)-1-[3-(1,1-difluoroethyl)phenyl]-1-hydroxyethyl}phenyl)imidazo[1,5-a]pyrazin-3-yl]hexahydroindolizin-3(2H)-one] |  | 24.9 |  | 449 |  |
| NC(=O)C(O)(c1ccc(-c2nc([C@@H]3CC[C@H]4CCC(=O)N4C3)n3ccnc(N)c23)cc1)c1cccc(C(F)(F)F)c1 (stereo partly drawn) [Example 97, 2-(4-{8-amino-3-[(6R,8aS)-3-oxooctahydroindolizin-6-yl]imidazo[1,5-a]pyrazin-1-yl}phenyl)-2-hydroxy-2-[3-(trifluoromethyl)phenyl] acetamide] |  | 894 |  |  | 10000 |
